For this test, the target named is Protein kinase C alpha type (Homo sapiens, UniProt P17252). In words: Inhibition of human recombinant PKCalpha.

On to `OC[C@H]1O[C@@H](O[C@H](CCCCc2ccc(O)c(O)c2)CCc2ccc(O)c(O)c2)[C@H](O)[C@@H](O)[C@@H]1O`, for which the IC50 is 2.83 µM. With `Oc1ccc(CCCC[C@@H](O)CCc2ccc(O)c(O)c2)cc1O`, the IC50 was 4.81 µM.

As to `O=C(/C=C/CCc1ccc(O)c(O)c1)CCc1ccc(O)c(O)c1` [DEHYDROHIRSUTANONOL], the IC50 was 4.26 µM.

Take `O=C(CCc1ccc(O)c(O)c1)C[C@@H](O)CCc1ccc(O)c(O)c1` [HIRSUTANONOL]: the IC50 is 13.3 µM. Take `O=C(CCc1ccc(O)c(O)c1)C[C@H](CCc1ccc(O)c(O)c1)O[C@@H]1OC[C@@H](O)[C@H](O)[C@H]1O` [OREGONIN]: the IC50 is 18 µM.

The term IC50 denotes the midpoint of a concentration-inhibition curve.

Values taken from ChEMBL document CHEMBL1151313, “Isolation and structure elucidation of new PKCalpha inhibitors from Pinus flexilis” (J Nat Prod, 1998).
